The source of these data is US5811428A, “Pyrimidine carboxamides and related compounds and methods for treating inflammatory conditions” (Signal Pharmaceuticals, Inc., priority 1995, dated 1998).

Like-named read-outs stand apart in the source and are kept apart here.

One data set relates to NFκB / AP-1. As to the kind of experiment: Inhibition of the activation of NFκB and AP-1 (luciferase reporter Jurkat T-cells, PMA/PHA stimulated). It counts as cell-based, human. As to conditions: stable Jurkat T-cells, read-out: NFκ/AP-1 IC50. How it is done:
Stable human Jurkat T-cells containing an NFκB binding site (from the MHC promoter) fused to a minimal SV-40 promoter driving luciferase expression were used in this experiment. Cells were split to 3×10^5 cells/mL every 2-3 days (cell concentration should not exceed 1×10^6 cells/mL to keep the cells proliferating in log phase). These cells were counted, resuspended in fresh medium containing 10% Serum-Plus at a density of 1×10^6 cells/mL and plated in 96 well round bottom plates (200 μL per well) 18 hours prior to starting the experiment.
Compounds of this invention, dissolved in dimethyl sulfoxide (3.3, 0.33 and 0.03 μg/mL), were then added to the 96 well plates containing the cells and the plates are incubated for 0.5 h at 37° C. Then 50 ng/mL of phorbol 12-myristate-13-acetate (PMA) and 1 μg/mL of phytohemagglutinin (PHA) was added to each well and the cells were incubated for an additional 5 h at 37° C. The plates were centrifuged at 2200 RPM for 3 minutes at room temperature and then the medium was removed. To each well was added 60 μL of cell lysis buffer and the plates were left at room temperature for 0.25 h. Then 40 μL of each cell extract was transferred to a black 96 well plate and 50 μL of luciferase substrate buffer was added. Luminescence was immediately measured using a Packard TopCount.
For AP-1, the assay was run as described above for NFκB except stable Jurkat T-cells were used that contained a the -73 collagenase promoter driving luciferase expression. In addition, the concentration of PMA used was 5 ng/mL.
(In general: Reporter assays use an easily measured gene product as a stand-in for the process of interest.)

Data set [1] has as its system DTH response to oxazolone. As to conditions: Morris et al., Transplantation Proceedings 22(Suppl. 1):110-112, 1990; cited from earlier work.
Data set [2] concerns DTH response to oxazolone. Briefly: Delayed type hypersensitivity study (oxazolone contact sensitivity model). It counts as in vivo, mice. To be noted: for Right-Left Ear (mean ± SEM): ear thickness difference 24 h after challenge, vehicle 0.30 ± 0.02.
Description: On day 0, oxazolone (100 μL of a 3% solution) was applied to the shaved abdomen of mice. On day 7, a challenge application of oxazolone was applied (10 μL) around the right ear. […] It was prepared immediately prior to use by suspending it in 0.25% methyl cellulose (Sigma) using a glass-teflon homogenizer. For each dose, 0.1 mL/10 g body weight of the suspension was administered. The compound was prepared at the highest concentration for that study and appropriate dilutions of the stock solution were made so that 0.1 mL/10 g body weight was administered. Twenty four hours later, the difference in right vs. left ear thickness was measured.
For data set [3], the system named is alloantigen-induced PLN proliferation. To be noted: Morris et al., Transplantation Proceedings 22(Suppl. 1):110-112, 1990; cited from earlier work.
For data set [4] the test system is unchanged. Briefly: Murine popliteal lymph node (PLN) assay, graft vs. host model. Format: in vivo, C3H mice (donor BALB/c mice). An excerpt:
The murine popliteal lymph node (PLN) assay is a graft vs. host model that predicts activity of compounds in blocking human transplant rejection. The delayed-type hypersensitivity response to oxazolone is a standard contact sensitivity model. Both of these models are used routinely to evaluate compounds that are used clinically.
Spleens were removed from donor BALB/c mice and splenocytes were isolated then irradiated (3,000 rads) to prevent donor cell proliferation. After washing and adjusting cell density, 2.5×10^6 cells were injected subcutaneously into the left hind footpad of C3H mice. On day 4, the mice were sacrificed and left popliteal lymph nodes (PLNs) were weighed.
For doses of 10, 20 and 30 mg/kg, appropriate dilutions of the stock solution were made so that 0.1 mL/10 g body weight was administered by intraperitoneal injection.

A further data set has as its system β-actin. As to the kind of experiment: β-actin control cell line (effects on transcription). Format: cell-based. As to conditions: control for effects on transcription; FIG. 3. An excerpt:
The results of the above assays for a representative compound of this invention, 2-chloro-4-trifluoromethyl-5-N-(3',5'-bistrifluoromethylphenyl)pyrimidine carboxamide, as percent inhibition versus control are presented in FIG. 3. This figure also indicates activity of β-actin which was employed in these assays as a control cell line indicating effects on transcription.

Take “2-[N-(1-AMINOCITRACONAMIDE)]-4-TRIFLUOROMETHYL-5-[N-(3',5'-DICHLOROPHENYL)]-PYRIMIDINE-5-CARBOXAMIDE [Example 45]”: in the data set with NFκB / AP-1, the IC50 was 2000 nM.

With `O=P1(N(CCCl)CCCl)NCCCO1` (stereo not shown) [Cyclophosphamide, reference compound], in data set [1], the “activity in the contact sensitivity model (in words)” value was “active”. Besides, the “Right-Left Ear (mean ± SEM)” value in data set [2] (50 mg/kg (i.p.)) was 0.08 ± 0.01. Moreover, in data set [2] (50 mg/kg i.p.), the “attenuation of the delayed-type response to oxazolone” value was found to be 73%. Moreover, the “activity in the PLN model (in words)” value in data set [3] is reported as “active”. With `O=C(Nc1cc(C(F)(F)F)cc(C(F)(F)F)c1)c1cnc(Cl)nc1C(F)(F)F` [Example 1, 2-CHLORO-4-TRIFLUOROMETHYL-5-N-[3',5'-BIS(TRIFLUOROMETHYL)PHENYL]PYRIMIDINECARBOXAMIDE], the “inhibition of PLN proliferation” value in data set [4] (10 mg/kg, once daily intraperitoneal, day 0 through day 4) stood at 52%. In addition, in data set [4] (10, 20 and 30 mg/kg i.p.), the “suppression of alloantigen-induced PLN proliferation (in words)” value is recorded as “dose-dependent suppression of alloantigen-induced PLN proliferation”. Also, in the data set with NFκB / AP-1 (Homo sapiens), the IC50 was determined as 30 nM. The “Right-Left Ear (mean ± SEM)” value worked out at 0.27 ± 0.01 in data set [2] (10 mg/kg (i.p.)) and 0.13 ± 0.02 in data set [2] (30 mg/kg (i.p.)). Further, the “animal deaths during study” value in data set [2] (30 mg/kg (i.p.)) is “One animal died during study”. Also, in data set [2] (30 mg/kg i.p.), the “attenuation of the delayed-type response to oxazolone” value was 56%. In addition, the “activity of β-actin (control cell line)” value with β-actin is recorded as “lack of β-actin activity”.

Take `O=C(Nc1ccc(C(F)(F)F)cc1)c1cnc(Cl)nc1C(F)(F)F` [Example 2, 2-CHLORO-4-TRlFLUOROMETHYL-5-N(4'-TRIFLUOROMETHYLPHENYL)PYRIMIDINE CARBOXAMIDE]: the IC50 with NFκB / AP-1 (Homo sapiens) worked out at 750 nM. As for `O=C(Nc1cc(Cl)c(Cl)c(Cl)c1)c1cnc(Cl)nc1C(F)(F)F` [Example 6, 2-CHLORO-4-TRIFLUOROMETHYL-5-N-(3',4',5'-TRICHLOROPHENYL)PYRIMIDINE CARBOXAMIDE], the IC50 with NFκB / AP-1 (Homo sapiens) was 800 nM. Same read-out and setting: as for `O=C(Nc1cc(Cl)cc(Cl)c1O)c1cnc(Cl)nc1C(F)(F)F` [Example 8, 2-CHLORO-4-TRIFLUOROMETHYL-5-N-(3',5'-DICHLORO-6'-HYDROXYPHENYL)PYRIMIDINE CARBOXAMIDE], the figure is 6000 nM.

As for `CC(=O)Nc1cc(NC(=O)c2cnc(Cl)nc2C(F)(F)F)ccc1F` [Example 10, 2-CHLORO-4-TRIFLUOROMETHYL-5-N-(3'-N-ACYL-4'-FLUORO-ANILINE)PYRIMIDINE CARBOXAMIDE], the IC50 with NFκB / AP-1 (Homo sapiens) came out at 1000 nM. As for `NC(=O)c1cc(NC(=O)c2cnc(Cl)nc2C(F)(F)F)cc(C(F)(F)F)c1` [Example 11, 2-CHLORO-4-TRIFLUOROMETHYL-5-N-(3'-TRIFLUOROMETHYL-5'-CARBOXAMIDEPHENYL) PYRIMIDINE CARBOXAMIDE], the IC50 in the data set on NFκB / AP-1 (Homo sapiens) was found to be 5000 nM. Still for that read-out and setting: the result for `CCOC(=O)c1cc(NC(=O)c2cnc(Cl)nc2C(F)(F)F)cc(C(F)(F)F)c1` [Example 12, 2-CHLORO-4-TRIFLUOROMETHYL-5-N-(3'-TRIFLUOROMETHYL-5'-ETHOXYCARBONYLPHENYL)PYRIMIDINE CARBOXAMIDE] reads 400 nM; that for `CN(C(=O)c1cnc(Cl)nc1C(F)(F)F)c1cc(Cl)cc(Cl)c1` [Example 13, 2-CHLORO-4-TRIFLUOROMETHYL-5-N-(3',5'-DICHLOROPHENYL)-5-N-(METHYL)PYRIMIDINE CARBOXAMIDE], 5000 nM; that for `Cc1nc(Cl)nc(Cl)c1C(=O)Nc1cc(C(F)(F)F)cc(C(F)(F)F)c1` [Example 15, 5-N-[3',5'-BIS(TRIFLUOROMETHYL)PHENYL]2,4-DICHLORO-6-METHYLPYRIMIDINE CARBOXAMIDE], 800 nM. On the same count and under the same terms, the result for `Cc1nc(Cl)ncc1C(=O)Nc1cc(C(F)(F)F)cc(C(F)(F)F)c1` [Example 39, 2-CHLORO-4-METHYL-5-N-[3',5'-BIS(TRIFLUOROMETHYL)PHENYL]PYRIMIDINE CARBOXAMIDE] reads 75 nM; that for `O=C(Nc1cc(C(F)(F)F)cc(C(F)(F)F)c1)c1cnc(Cl)nc1Cl` [Example 41, 2,4-DICHLORO-5-N-[3',5'-BIS(TRIFLUOROMETHYL)PHENYL]PYRIMIDINE-5-CARBOXAMIDE], 600 nM; that for `N#Cc1ncc(C(=O)Nc2cc(C(F)(F)F)cc(C(F)(F)F)c2)c(C(F)(F)F)n1` [Example 42, 2-CYANO-4-TRIFLUOROMETHYL-5-N-[3',5'-BIS(TRIFLUOROMETHYL)PHENYL]PYRIMIDINE CARBOXAMIDE], > 10000 nM. `O=C(Nc1cc(C(F)(F)F)cc(C(F)(F)F)c1)c1cnc(Cl)nc1-c1ccccc1` [Example 43, 2-CHLORO-4-PHENYL-5-N-[3',5'-BIS(TRIFLUOROMETHYL)PHENYL]PYRIMIDINE CARBOXAMIDE]: in the data set with NFκB / AP-1 (Homo sapiens), the IC50 is 500 nM.
